What was measured:
Assay in all cases: Isothermal titration calorimetry
Pm-NanK = molecular target: T1, Pm-NanK (Pasteurella multocida, UniProt Q9CKB3, M259T); format: binding, P. multocida
T1 sequence (Q9CKB3 1-297 M259T): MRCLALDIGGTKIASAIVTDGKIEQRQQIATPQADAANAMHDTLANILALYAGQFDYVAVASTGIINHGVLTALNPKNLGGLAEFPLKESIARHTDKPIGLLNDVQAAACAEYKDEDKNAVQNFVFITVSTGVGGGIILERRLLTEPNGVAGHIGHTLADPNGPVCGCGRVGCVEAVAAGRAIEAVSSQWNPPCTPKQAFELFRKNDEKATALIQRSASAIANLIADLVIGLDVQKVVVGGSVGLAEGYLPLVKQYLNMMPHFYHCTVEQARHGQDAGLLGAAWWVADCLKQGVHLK

Vc-NanK = molecular target: T2, Vc-NanK (Vibrio cholerae serotype O1, UniProt Q9KR61); format: binding, V. cholera
T2 sequence (Q9KR61 1-287): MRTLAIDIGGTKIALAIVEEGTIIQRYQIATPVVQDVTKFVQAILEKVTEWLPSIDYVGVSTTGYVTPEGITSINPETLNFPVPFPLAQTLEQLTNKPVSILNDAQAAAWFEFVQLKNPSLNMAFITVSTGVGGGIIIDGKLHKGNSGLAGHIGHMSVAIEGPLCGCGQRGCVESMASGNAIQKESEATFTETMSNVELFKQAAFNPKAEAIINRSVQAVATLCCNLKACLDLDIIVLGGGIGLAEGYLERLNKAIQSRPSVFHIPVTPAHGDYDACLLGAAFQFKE

Hi-NanK = molecular target: T3, Hi-NanK (Haemophilus influenzae, UniProt Q4QP43); format: binding, H. influenzae
T3 sequence (Q4QP43 1-300): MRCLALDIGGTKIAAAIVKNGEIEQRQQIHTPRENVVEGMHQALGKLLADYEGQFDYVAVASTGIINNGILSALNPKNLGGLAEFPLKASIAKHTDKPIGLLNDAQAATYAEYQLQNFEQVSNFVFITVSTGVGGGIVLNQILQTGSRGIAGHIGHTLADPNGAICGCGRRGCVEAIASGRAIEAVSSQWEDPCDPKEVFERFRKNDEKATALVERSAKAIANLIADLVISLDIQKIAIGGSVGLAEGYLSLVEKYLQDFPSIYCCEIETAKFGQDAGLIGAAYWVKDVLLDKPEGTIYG

Fn-NanK = molecular target: T4, Fn-NanK (Fusobacterium nucleatum, UniProt Q8RDN7); format: binding, F. nucleatum; conditions: Fn-NanK wild type
T4 sequence (Q8RDN7 1-291): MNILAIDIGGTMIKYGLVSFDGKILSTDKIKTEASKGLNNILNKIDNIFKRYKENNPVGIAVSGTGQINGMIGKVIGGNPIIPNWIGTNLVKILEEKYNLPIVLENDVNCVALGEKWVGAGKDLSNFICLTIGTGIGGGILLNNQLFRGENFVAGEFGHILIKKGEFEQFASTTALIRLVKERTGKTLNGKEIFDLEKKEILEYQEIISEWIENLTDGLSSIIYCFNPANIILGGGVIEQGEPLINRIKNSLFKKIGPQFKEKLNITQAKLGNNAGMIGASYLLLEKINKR

[1] = Hi-NanK wild type, ligand alone
[2] = Hi-NanK, in the presence of ManNAc

Nc1ncnc2c1ncn2[C@@H]1O[C@H](COP(=O)(O)OP(=O)(O)NP(=O)(O)O)[C@@H](O)[C@H]1O [AMPPNP, adenylyl-imidodiphosphate]
Kd (Pm-NanK; in the presence of ManNAc): 112 ± 14.5 µM
TΔS (Pm-NanK; in the presence of ManNAc): 1.1 kcal/mol
ΔH (Pm-NanK; in the presence of ManNAc): –4.3 ± 0.35 Kcal/mol
Kd (Pm-NanK; ligand alone): no measurable binding
Kd (Vc-NanK; in the presence of ManNAc): 44 ± 9.2 µM
TΔS (Vc-NanK; in the presence of ManNAc): 3.814 kcal/mol
ΔH (Vc-NanK; in the presence of ManNAc): –2.1 ± 0.482 Kcal/mol
Kd (Vc-NanK; ligand alone): no measurable binding
Kd (Hi-NanK; [1]): 53 ± 6.4 µM
TΔS (Hi-NanK; [1]): –1.85 Kcal/mol
ΔH (Hi-NanK; [1]): –7.7 ± 2.44 Kcal/mol
Kd (Hi-NanK; [2]): 72 ± 12 µM
TΔS (Hi-NanK; [2]): 1.94 kcal/mol
ΔH (Hi-NanK; [2]): –3.7 ± 0.68 Kcal/mol
Kd (Fn-NanK; in the presence of ManNAc): 35 ± 1.12 µM
TΔS (Fn-NanK; in the presence of ManNAc): –2.87 Kcal/mol
ΔH (Fn-NanK; in the presence of ManNAc): –8.94 ± 0.18 Kcal/mol
Kd (Fn-NanK; ligand alone): 61 ± 7.48 µM
TΔS (Fn-NanK; ligand alone): 2.13 kcal/mol

— paper PMC7726757 (ACS Omega, 2020)
